Structures can show the parent of a compound that is named as a salt. Where two headings read alike, the source gives them in different places.
Experiments:
S. aureus biofilm = S. aureus biofilm inhibition, optical density, test/control; type: cell-based, Staphylococcus aureus; settings: Staphylococcus aureus, growth of biofilm test/control by optical density
S. aureus = S. aureus growth inhibition, optical density, test/control; type: cell-based, Staphylococcus aureus; settings: Staphylococcus aureus, growth of bacteria test/control by optical density
S. epidermis biofilm = S. epidermis biofilm inhibition, optical density, test/control; settings: Staphylococcus epidermidis, growth of biofilm test/control by optical density; for activity at 5 µM: read-out: S. epidermis Biofilm inhibition 5 μM vs. (−) Control, 5 μM; for activity at 50 µM: read-out: S. epidermis Biofilm inhibition 50 μM vs. (−) Control, 50 μM
[1] = 5 μM, read-out: S. aureus Biofilm Inhibition 5 μM vs. (−) Control

Structure (SMILES) | activity at 100 µM (S. aureus biofilm) | activity at 100 µM (S. aureus) | also measured
COCCSc1nc2c(c(=O)n1CCOc1ccc(F)cc1)C(C)(C)Cc1ccccc1-2 [CCG-204027, 3-(2-(4-Fluorophenoxy)ethyl)-2-((2-methoxyethyl)thio)-5,5-dimethyl-5,6-dihydrobenzo-[h]quinazolin-4(3H)-one] | 74.8% | 108% | –
COCCSc1nc(OCCOc2ccc(F)cc2)c2c(n1)-c1ccccc1CC2(C)C [CCG-204028, 4-(2-(4-Fluorophenoxy)ethoxy)-2-((2-methoxyethyl)thio)-5,5-dimethyl-5,6-dihydrobenzo[h]-quinazoline] | 70% | 113% | –
COCCSc1nc2c(c(=O)n1CC1OCCO1)C(C)(C)Cc1ccccc1-2 [CCG-204029, 3-((1,3-Dioxolan-2-yl)methyl)-2-((2-methoxyethyl)thio)-5,5-dimethyl-5,6-dihydrobenzo[h]-quinazolin-4(3H)-one] | 63.6% | 94.3% | –
COCCSc1nc2c(c(=O)n1CCCC#N)C(C)(C)Cc1ccccc1-2 [CCG-204031, 4-(2-((2-Methoxyethyl)thio)-5,5-dimethyl-4-oxo-5,6-dihydrobenzo[h]quinazolin-3(4H)-yl)butanenitrile] | 59.2% | 98.5% | –
COCCSc1nc2c(c(=O)n1Cc1ccc(OC)cc1)C(C)(C)Cc1ccccc1-2 [CCG-204036, 3-(4-Methoxybenzyl)-2-((2-methoxyethyl)thio)-5,5-dimethyl-5,6-dihydrobenzo[h]quin-azolin-4(3H)-one] | 76.5% | 112% | –
COCCSc1nc(OCc2ccc(OC)cc2)c2c(n1)-c1ccccc1CC2(C)C [CCG-204037, 4-((4-Methoxybenzyl)oxy)-2-((2-methoxyethyl)thio)-5,5-dimethyl-5,6-dihydrobenzo[h]-quinazoline] | 65.7% | 110% | –
COCCSc1nc(OCC(=O)c2ccc(F)c(F)c2)c2c(n1)-c1ccccc1CC2(C)C [CCG-204040, 1-(3,4-Difluorophenyl)-2-((2-((2-methoxyethyl)thio)-5,5-dimethyl-5,6-dihydrobenzo[h]-quinazolin-4-yl)oxy)ethanone] | 65.9% | 119% | –
C=CCn1c(SCCOC)nc2c(c1=O)C(C)(C)Cc1cnccc1-2 [CCG-204041, 3-allyl-2-((2-methoxyethyl)thio)-5,5-dimethyl-5,6-dihydropyrido[3,4-h]quinazolin-4(3H)-one] | 75.7% | 90.2% | –
COCCSc1nc2c(c(=O)n1CCOc1ccc(OC)cc1)C(C)(C)Cc1ccccc1-2 [CCG-204060] | 79% | 91.2% | –
C#CCSc1nc2c(c(=O)n1CC=C)C(C)(C)Cc1cc(C(=O)c3ccccc3)ccc1-2 [CCG-204080, 3-allyl-8-benzoyl-5,5-dimethyl-2-(prop-2-yn-1-ylthio)-5,6-dihydrobenzo[h]quinazolin-4(3H)-one] | 73.4% | 110% | –
COCCOc1nc(SCCOC)nc(-c2ccccc2)c1C [CCG-205361, 4-(2-Methoxyethoxy)-2-((2-methoxyethyl)thio)-5-methyl-6-phenylpyrimidine] | 67.7% | 89% | –
C=CCOc1nc(SCCOC)nc(-c2ccccc2)c1C [CCG-205382, 4-(Allyloxy)-2-((2-methoxyethyl)thio)-5-methyl-6-phenylpyrimidine] | 55.2% | 93.4% | –
COCCSc1nc2c(c(=O)n1Cc1ccc(-c3noc(C)n3)cc1)C(C)(C)Cc1ccccc1-2 [CCG-205387, 2-((2-Methoxyethyl)thio)-5,5-dimethyl-3-(4-(5-methyl-1,2,4-oxadiazol-3-yl)benzyl)-5,6-dihydrobenzo[h]quinazolin-4(3H)-one] | 72.3% | 115% | –
C=CCn1c(SCC)nc2c(c1=O)C(C)(C)Cc1cc(OCC(C)C)ccc1-2 [CCG-205426, 3-allyl-2-(ethylthio)-8-isobutoxy-5,5-dimethyl-5,6-dihydrobenzo[h]quinazolin-4(3H)-one] | 77.8% | 114% | –
C=CCn1c(SCCOC)nc2c(c1=O)C(C)(C)Cc1cc(C(=O)OC)ccc1-2 [CCG-205435] | – | 126% | activity at 10 µM (S. aureus biofilm): 29.3%
COCCSc1nc2c(c(=O)n1CC1CC1)C(C)(C)Cc1ccccc1-2 [CCG-205444, 3-(Cyclopropylmethyl)-2-((2-methoxyethyl)thio)-5,5-dimethyl-5,6-dihydrobenzo[h]quinazolin-4(3H)-one] | 66.2% | 104% | –

Structure (SMILES) | activity at 100 µM (S. aureus biofilm) | activity at 100 µM (S. aureus) | also measured
COCCSc1nc(OCC2CC2)c2c(n1)-c1ccccc1CC2(C)C [CCG-205445, 4-(Cyclopropylmethoxy)-2-((2-methoxyethyl)thio)-5,5-dimethyl-5,6-dihydrobenzo[h]quin-azoline] | 71.1% | 107% | –
C=CCn1c(SCCOC)nc2c(c1=O)C1(CCOCC1)Cc1ccccc1-2 [CCG-205453, 3-Allyl-2-((2-methoxyethyl)thio)-2′,3′,5′,6′-tetrahydro-3H-spiro[benzo[h]quinazoline-5,4′-pyran]-4(6H)-one] | 79.6% | 102% | –
C=CCn1c(SCC)nc2c(c1=O)C(C)(C)Cc1cc(OC(C)C)ccc1-2 [CCG-205480] | – | 115% | activity at 10 µM (S. aureus biofilm): 52.3%
C=CCn1c(SCC)nc2c(c1=O)C(C)(C)Cc1cc(OCCN3C(=O)c4ccccc4C3=O)ccc1-2 [CCG-206176, 2-(2-((3-allyl-2-(ethylthio)-5,5-dimethyl-4-oxo-3,4,5,6-tetrahydrobenzo[h]quinazolin-8-yl)oxy)ethyl)isoindoline-1,3-dione] | 79.5% | 100% | –
C=CCn1c(SCC)nc2c(c1=O)C(C)(C)Cc1cc(OCC#N)ccc1-2 [CCG-206178] | – | 104% | activity at 10 µM (S. aureus biofilm): 56.5%
C=CCn1c(SCCOC)nc2c(c1=O)C1(CCN(C(C)=O)CC1)Cc1ccccc1-2 [CCG-206230, 1′-Acetyl-3-allyl-2-((2-methoxyethyl)thio)-3H-spiro[benzo[h]quinazoline-5,4′-piperidin]-4(6H)-one] | – | 97% | activity at 10 µM (S. aureus biofilm): 85.5%
C=CCn1c(SCCOC)nc2c(c1=O)C1(CCN(C(=O)c3ccccc3)CC1)Cc1ccccc1-2 [CCG-206231, 3-Allyl-1′-benzoyl-2-((2-methoxyethyl)thio)-3H-spiro[benzo[h]quinazoline-5,4′-piperidin]-4(6H)-one] | 53% | 111% | activity at 10 µM (S. aureus biofilm): 52.5%
C=CCn1c(SCCOC)nc2c(c1=O)C1(CCN(C=O)CC1)Cc1ccccc1-2 [CCG-206234, 3-Allyl-2-((2-methoxyethyl)thio)-4-oxo-4,6-dihydro-3H-spiro[benzo[h]quinazoline-5,4′-piperidine]-1′-carbaldehyde] | 65% | 99% | activity at 10 µM (S. aureus biofilm): 101%
C=CCn1c(SCCOC)nc2c(c1=O)C1(CCN(C(=O)c3ccc(Cl)cc3)CC1)Cc1ccccc1-2 [CCG-206235, 3-Allyl-1′-(4-chlorobenzoyl)-2-((2-methoxyethyl)thio)-3H-spiro[benzo[h]quinazoline-5,4′-piperidin]-4(6H)-one] | 77.6% | 106% | –
C=CCn1c(SCC(F)(F)F)nc2c(c1=O)C(C)(C)Cc1ccc(OC)cc1-2 [CCG-206352] | 47% | 101% | activity at 10 µM (S. aureus biofilm): 60.4%
C=CCn1c([S+]([O-])CC)nc2c(c1=O)C(C)(C)Cc1ccc(OC)cc1-2 (stereo not shown) [CCG-206355] | 74.7% | 96% | –
CCSc1nc(OCC(F)(F)F)c2c(n1)-c1cc(OC)ccc1CC2(C)C [CCG-206356] | 59.1% | 110% | –
C=CCn1c(SCCOC)nc2c(c1=O)C1(CCN(C(=O)OC(C)(C)C)CC1)Cc1cc(OC)ccc1-2 [CCG-206660, tert-butyl 3-allyl-8-methoxy-2-((2-methoxyethyl)thio)-4-oxo-4,6-dihydro-3H-spiro[benzo[h]quinazoline-5,4′-piperidine]-1′-carboxylate] | – | – | activity at 5 µM (S. epidermis biofilm): 71.5%; activity at 50 µM (S. epidermis biofilm): 64.3%; activity at 5 µM (S. aureus biofilm; [1]): 46%; activity at 50 µM (S. aureus biofilm; 50 μM, read-out: S. aureus Biofilm Inhibition 50 μM vs. (−) Control): 60.1%
C=CCn1c(SCCOC)nc2c(c1=O)C1(CCNCC1)Cc1cc(OC)ccc1-2 [CCG-206661, 3-allyl-8-methoxy-2-((2-methoxyethyl)thio)-3H-spiro[benzo[h]quinazoline-5,4′-piperidin]-4(6H)-one hydrochloride] | – | – | activity at 5 µM (S. epidermis biofilm): 98.7%; activity at 5 µM (S. aureus biofilm; read-out: S. aureus Biofilm Inhibition 5 μM vs. (−) Control, 5 μM): 86.9%
C=CCn1c(SCC)nc2c(c1=O)C1(CCN(C(=O)OC(C)(C)C)CC1)Cc1cc(OC)ccc1-2 [CCG-206663, tert-butyl 3-allyl-2-(ethylthio)-8-methoxy-4-oxo-4,6-dihydro-3H-spiro[benzo[h]quinazoline-5,4′-piperidine]-1′-carboxylate] | – | – | activity at 5 µM (S. epidermis biofilm): 73.4%; activity at 50 µM (S. epidermis biofilm): 76.1%; activity at 5 µM (S. aureus biofilm; [1]): 49.9%
C=CCn1c(SCCOC)nc2c(c1=O)C1(CCN(C(=O)Nc3ccccc3)CC1)Cc1cc(OC)ccc1-2 [CCG-211971, 3-allyl-8-methoxy-2-((2-methoxyethyl)thio)-4-oxo-N-phenyl-4,6-dihydro-3H-spiro[benzo[h]quinazoline-5,4′-piperidine]-1′-carboxamide] | – | – | activity at 5 µM (S. epidermis biofilm): 125%; activity at 50 µM (S. epidermis biofilm): 69%

Source: patent US10441588B2, “Methods and compositions for treating bacterial infection” (Curators of the University of Missouri, priority 2012, dated 2019)
